Measured values as given in patent publication US9670545B2, “Methods and kits for treating and classifying individuals at risk of or suffering from TRAP1 change-of-function” (Courtagen Life Sciences, Inc., priority 2013, dated 2017).

Test system: patient with I253V in the TRAP1 ATPase domain
Assay: Case Report 1: clinical response of a patient with I253V in the TRAP1 ATPase domain to supplementation
Format: in vivo, human
Settings: single patient
Protocol: A person was referred to the inventors because of a failure-to-thrive and hypoglycemia. Additional problems included constipation, temperature instability, tachycardia, delayed gastric emptying (confirmed by Scintiscan), almost-daily pain (headaches, abdominal pain, leg cramps), chronic fatigue (sleeping up to 22 hours a day), anemia (requiring multiple transfusions), repetitive episodes of right arm dyskinesia (2 minutes each, twice a week), and neurodevelopmental issues (gross motor delay, auditory processing problem, and memory defects, but cognitive delay is only 6 months). […] Episodic dyskinesia later resolved with L-arginine supplementation. However, gastrointestinal dysfunction worsened, necessitating a gastrostomy tube, followed by a jejunostomy tube. […] Pertinent results of an extensive work-up include normal brain MR, normal video-EEG, severe free carnitine deficiency (<4 micromolar, normal >19; total carnitine 17), trace elevations on urine organic acids, respiratory alkalosis (hyperventilation), and hypoglycemia (even while receiving adequate jejunal feeds or parental nutrition). […] After finding the I253V in the TRAP1 ATPase domain, antioxidant therapy was intensified, and results are pending.

For `N=C(N)NCCC[C@H](N)C(=O)O` [L-arginine], the “Episodic dyskinesia (repetitive episodes of right arm dyskinesia)” value was “resolved”.
